The source of these data is publication PMC4397963, “Phospho-Tyrosine(s) vs. Phosphatidylinositol Binding in Shc Mediated Integrin Signaling” (American journal of molecular biology, 2015).

Entries after “also recorded” stand apart in the source; their conditions may differ.

In experiment [1] the test system is Shc PTB domain. The following applies: ref [15]; cited from earlier work. From the text:
Since their discovery about two decades ago, PTB domains have been identified and structurally characterized within numerous multi-domain proteins. The ways they interact with their targets are strikingly versatile. The phosphorylated tyrosine is not always required for the high affinity interactions, and, in some cases, the binding motif might not even contain the tyrosine residue at all. PTB domains in general are also famous for the significant variance in their ligand binding affinities, ranging from 0.1 to 100 μM [17].

For experiment [2], the system named is apo Shc PTB domain. As to the kind of experiment: 15N-HSQC NMR titration of apo Shc PTB domain. The class given is binding. The following applies: 15N-labelled apo PTB 100 – 200 μM, 50 mM Tris pH 7.5, 100 mM NaCl, 35°C; lipid to protein up to 15 to 1 (Ins(1,4,5)P3), 5 to 1 (PtdIns(4,5)P2). How it is done:
^15N-labelled recombinant proteins were overexpressed in M9 medium supplemented with ^15NH4Cl as the sole nitrogen source. The same purification procedures as described above were followed. NMR samples of 100 – 200 μM were prepared in a buffer of 50 mM Tris, pH 7.5, 100 mM NaCl, 5 mM β-mercaptoethanol, 7% D2O, 1 mM 4,4-dimethyl-4-silapentane-1-sulfonic acid as the internal standard. ^15N-HSQC titration experiments were performed on a Varian/Agilent Inova 600 MHz spectrometer equipped with inverse-triple resonance cryo-probe at 35°C. All spectra were processed with NMRPipe and analyzed in CCPNmr Analysis software suite.
To find out the molecular details of these weak Shc-PtdIns interactions, we next employed NMR and performed ^15N-HSQC chemical shifts mapping experiments which are especially useful to define weak binding. […] Chemical shift perturbations, associated with the probes binding, were monitored. Overall, the observed shifts in Shc PTB resonance frequencies were small. However, they were concentration dependent, reproducible, and similar among the two PtdIns tested. […] The close-ups of 15N-HSQC spectra of PTB in the presence of PtdIns(4,5)P2, exemplifying the most shifted resonances, are shown in Figure 2. […] The first one, represented by the residues Q^148, S^149 and A^168, overlaps with the classical phosphotyrosine binding pocket of the protein-peptide binary complex. However, the canonical PTB fold cannot be formed without the stabilizing hydrophobic residue (pY-5) of the target peptide. Thus, in apo PTB domain Ins(1,4,5)P3 could only establish intermediate dynamic contacts with the amine functional groups of R^67 or Q^148 side chains. The second binding site, including the residues L^63, Q^76 and S^107, is formed at the interface of the second helix, the loop connecting the first beta strand with the second helix and the beginning of the second beta strand. This second PtdIns binding site is distinct from the second novel phosphotyrosine binding site we previously described for Shc PTB-bi-β3 complex, although it includes several overlapping residues. […]

Experiment [3] addresses PTB domain complexed with TrkA peptide. The following applies: roughly estimated; ref [15]; cited from earlier work.
Experiment [4] addresses apo PTB domain of Shc. The following applies: unilamellar liposomes centrifugation assay; ref [15]; read-out: binding affinity, apo PTB domain; cited from earlier work.
Experiment [5] deals with T1, Shc PTB domain (17 – 207) (Homo sapiens, UniProt P29353).
T1 construct: The Shc PTB domain (17 – 207) containing the pET15b vector was transformed into a Rosetta (DE3) cell line; His-tag (N); made in house; host or cells: E. coli Rosetta (DE3), pET15b
T1 sequence (P29353 17-207 isoform P29353-2): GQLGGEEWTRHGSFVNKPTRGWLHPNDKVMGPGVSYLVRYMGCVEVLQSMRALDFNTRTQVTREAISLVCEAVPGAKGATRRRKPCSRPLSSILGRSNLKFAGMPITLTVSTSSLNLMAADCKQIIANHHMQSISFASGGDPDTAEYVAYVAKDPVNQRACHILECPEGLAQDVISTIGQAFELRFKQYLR
As to the kind of experiment: ITC binding to Shc PTB domain. The following applies: for thermodynamic character of binding (heat sign, driving force) / Kd / ΔG / ΔH / −TΔS: ITC, 25°C; for Kd / ΔG / ΔH / −TΔS: PtdIns binding to PTB domain; for Kd: 50 mM Tris pH 7.5, 100 mM NaCl, 5 mM β-mercaptoethanol, "independent" model, dihexanoyl- or dioctonoyl- PtdIns, read-out: Kd; for ΔG / ΔH / −TΔS: pH 7.5. How it is done: The Shc PTB domain (17 – 207) containing the pET15b vector was transformed into a Rosetta (DE3) cell line to pursue optimal expression levels. SH2 domain (380 – 473) was cloned into NdeI and XhoI sites in pET21b vector and then transformed into a BL21 (DE3) cell line. The vector of pET28a-full length Shc (1 – 473), generously provided by Dr. Ladbury (University of Texas MD Anderson Cancer Center, TX), was expressed in a BL21 (DE3) cell line as well. Typically, 10 ml overnight culture was used to inoculate 1 liter LB broth. Cells were grown at 37°C until OD600 reached 0.6. At this point the culture was cooled to room temperature and then the overnight overexpression was induced by 1 mM isopropyl-β-D-thiogalactopyranoside. Harvested cells were kept at −20°C for future purification or resuspended in lysis buffer supplemented with protease inhibitors. Cells were further lysed by french press and the cell debris was removed by centrifugation at 18,000 rpm at 4°C. […] The overexpression of the target protein and the purified protein were confirmed by SDS-PAGE and the bands of the expected mass were observed. The determination of protein concentration by UV measurement was consistent with Bradford assay.
Calorimetric measurements of a full length Shc, PTB domain, and SH2 domain to β3 phosphopeptides or PtdIns were performed on a low volume Nano ITC (TA Instruments). All experiments were carried out in a buffer of 50 mM Tris, pH 7.5, 100 mM NaCl, 5 mM β-mercaptoethanol (unless described otherwise) at 12°C or 25°C with a stirring speed of 250 rpm to minimize the precipitation of the protein. 300 second time intervals were set between injections. The concentration of protein samples was determined by UV measurements. The titrants (β3 phosphopeptides or PtdIns) were prepared in the same buffer by the dilution of higher concentration stocks. The concentrations of the protein ranged from 30 μM to 150 μM. The concentration of protein was examined after each ITC experiment by UV to ensure the stability of proteins under the test condition. The analysis of the data was done with Nano Analyze Software (TA Instruments) suite using an “independent” model.

Experiment [6] concerns the target TrkA phosphopeptide (Homo sapiens) (UniProt P04629). In words: ITC. The following applies: cited from earlier work.
The target is the same in experiment [7]. As to the kind of experiment: SPR. The following applies: cited from earlier work.

Sequence of TrkA phosphopeptide (Homo sapiens) (P04629 33-796): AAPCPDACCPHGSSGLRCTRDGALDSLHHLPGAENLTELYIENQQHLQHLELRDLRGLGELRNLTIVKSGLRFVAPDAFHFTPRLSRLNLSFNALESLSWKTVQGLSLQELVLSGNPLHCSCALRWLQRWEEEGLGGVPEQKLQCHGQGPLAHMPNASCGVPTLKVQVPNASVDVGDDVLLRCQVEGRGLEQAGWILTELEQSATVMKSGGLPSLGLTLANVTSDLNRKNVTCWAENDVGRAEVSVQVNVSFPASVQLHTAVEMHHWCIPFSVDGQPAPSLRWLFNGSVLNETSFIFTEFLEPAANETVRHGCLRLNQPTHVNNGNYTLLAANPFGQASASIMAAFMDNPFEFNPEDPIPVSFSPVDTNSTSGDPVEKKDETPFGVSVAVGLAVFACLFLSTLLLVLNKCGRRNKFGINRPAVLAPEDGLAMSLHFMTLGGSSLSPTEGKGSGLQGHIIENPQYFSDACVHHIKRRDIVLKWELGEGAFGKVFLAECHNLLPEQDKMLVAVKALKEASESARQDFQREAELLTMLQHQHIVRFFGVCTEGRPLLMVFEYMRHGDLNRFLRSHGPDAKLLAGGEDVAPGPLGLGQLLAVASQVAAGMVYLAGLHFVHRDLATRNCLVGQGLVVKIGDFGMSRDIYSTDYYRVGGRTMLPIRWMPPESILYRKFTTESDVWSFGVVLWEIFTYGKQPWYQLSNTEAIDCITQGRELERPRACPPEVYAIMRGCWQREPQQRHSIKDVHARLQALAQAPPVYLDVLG
Sequence of Shc PTB (P29353 156-339): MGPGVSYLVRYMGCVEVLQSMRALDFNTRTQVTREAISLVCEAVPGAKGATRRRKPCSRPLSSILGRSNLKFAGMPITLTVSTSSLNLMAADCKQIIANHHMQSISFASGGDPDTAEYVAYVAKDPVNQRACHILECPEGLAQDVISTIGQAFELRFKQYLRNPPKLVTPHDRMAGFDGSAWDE

For `CCCCCCCCCCCCCCCC(=O)OC[C@H](COP(=O)(O)O[C@H]1[C@H](O)[C@@H](O)[C@H](OP(=O)(O)O)[C@@H](OP(=O)(O)O)[C@H]1O)OC(=O)CCCCCCCCCCCCCCC` [PtdIns(4,5)P2, Phosphatidylinositol-4,5-diphosphate], in experiment [1], the lipid specificity entry was “higher specificities”. In addition, the “15N-HSQC chemical shift perturbations” value in experiment [2] is reported as “small; also recorded: more pronounced; also recorded: three major binding regions”. For the same compound, the Kd in experiment [3] is approximately 450 µM. Besides, the Kd in experiment [4] was 140 µM. For the same compound, in experiment [5] (PTB domain), the “thermodynamic character of binding (heat sign, driving force)” value is “endothermic interactions at 25 °C that are driven predominantly by entropy”. For the same compound, in experiment [5], the Kd turned out to be 125 µM, the ΔG is -22.27 kJ/mol, the ΔH was determined as 1.94 kJ/mol and the “−TΔS” value is -24.21 kJ/mol.
“Phosphatidylinositol-4-phosphate [PtdIns(4)P1]”: in experiment [1], the lipid specificity result is listed as “higher specificities”. The “15N-HSQC chemical shift perturbations” value in experiment [2] is reported as “small”. The Kd in experiment [3] is approximately 450 µM. In addition, the Kd in experiment [4] is 52 µM. The “binding affinity relative to that reported before” value in experiment [5] (PTB domain, ITC 25°C vs. centrifugation assay of ref 15) is on record as “about two times weaker”. The “thermodynamic character of binding (heat sign, driving force)” value in experiment [5] (PTB domain) is “endothermic interactions at 25 °C that are driven predominantly by entropy”. Further, in experiment [5], the Kd was 95 µM, the ΔG was -22.95 kJ/mol, the ΔH was 1.51 kJ/mol and the “−TΔS” value is -24.46 kJ/mol.
Consider Shc PTB (from UniProt P29353), for which the figures for the Kd in experiment [6] and in experiment [7] were 190 nM and 53 nM, respectively.
